IC50, Activity and inhibition data for 13 molecules are collected here from ChEMBL document CHEMBL4138264, “Seco-Dendrobine-Type Alkaloids and Bioactive Phenolics from Dendrobium findlayanum” (J Nat Prod, 2018).

Activity calls are given as the source filed them. The rule behind the calls is not given here. Peptide text beside a SMILES is read from it. * marks the point of attachment. Cbz = O=C(OCc1ccccc1)* Where only a bound is given, the exact number is not on record here.

Assay [1] has as its system A549. The assay can be described thus: Cytotoxicity against human A549 cells assessed as reduction in cell viability after 48 hrs by MTS assay. It counts as functional, cell-based. To be noted: A549, 48 h. (Tetrazolium dyes change colour on reduction, which living cells bring about.)
Assay [2] deals with HL-60. As to the kind of experiment: Cytotoxicity against human HL60 cells assessed as reduction in cell viability after 48 hrs by MTS assay. It is filed as functional, cell-based. The note with it: HL-60, 48 h.
For assay [3], the system named is SW480. The assay can be described thus: Cytotoxicity against human SW480 cells assessed as reduction in cell viability after 48 hrs by MTS assay. It is filed as functional, cell-based. To be noted: SW480, 48 h.
The subject of assay [4] is SMMC-7721. The assay can be described thus: Cytotoxicity against human SMMC7721 cells assessed as reduction in cell viability after 48 hrs by MTS assay. The note with it: SMMC-7721, 48 h. It counts as functional, cell-based.
Assay [5] deals with MCF7. As to the kind of experiment: Cytotoxicity against human MCF7 cells assessed as reduction in cell viability after 48 hrs by MTS assay. It counts as functional, cell-based. To be noted: MCF7, 48 h.
In assay [6] the test system is RAW264.7. As to the kind of experiment: Antiinflammatory activity in mouse RAW264.7 cells assessed as reduction in LPS-induced NO production at 25 uM preincubated for 1 hr followed by LPS stimulation measured after 18 hrs by Griess assay. It is filed as functional, cell-based. Background: The Griess reaction detects nitrite, a stable product of nitric oxide.
The subject of assay [7] is RAW264.7. As to the kind of experiment: Inhibition of LPS-stimulated ROS production in mouse RAW264.7 cells at 25 ug/ml preincubated for 1 hr followed by LPS stimulation measured after 18 hrs by DCFH-DA probe based flow cytometry. It is filed as functional, cell-based. For orientation: Flow cytometry measures light scatter and fluorescence of single cells or particles in a stream.

Assay [8] in a line: Antioxidant activity assessed as DPPH radical scavenging activity at 50 uM after 1 hr. It is filed as functional.
Assay [9] has as its system RAW264.7. As to the kind of experiment: Antiinflammatory activity in mouse RAW264.7 cells assessed as reduction in LPS-induced NO production preincubated for 1 hr followed by LPS stimulation measured after 18 hrs by Griess assay. It is filed as functional, cell-based.
The subject of assay [10] is RAW264.7. The assay can be described thus: Antiinflammatory activity in mouse RAW264.7 cells assessed as reduction in LPS-induced NO production at 25 ug/ml preincubated for 1 hr followed by LPS stimulation measured after 18 hrs by DAF-FMDA probe based flow cytometry. It is filed as functional, cell-based.
Assay [11] in a line: Antioxidant activity assessed as DPPH radical scavenging activity at 25 ug/ml after 1 hr. It is filed as functional.

For orientation: IC50 means the concentration that gives 50% inhibition. `CC(C)[C@@H]1[C@H]2OC(=O)[C@@H]1[C@@H]1CC[C@@H]3CN(C)[C@H]2[C@@]31C`: the IC50 in assay [1], in assay [2], in assay [3], in assay [4] and in assay [5] was over 40 µM in each case. The result in [6] was inactive.

For the molecule `COc1ccc(CCc2cc(OC)c3c(c2)O[C@@H](c2ccc(O)c(OC)c2)[C@H](CO)O3)cc1`, the IC50 in assay [1], in assay [2], in assay [3], in assay [4] and in [5] was over 40 µM each time. Further, the inhibition result in [7] is “inactive”. For the same molecule, the Activity in assay [8] turned out to be 9.56%. In addition, the result in [6] was inactive.

For the molecule `CC(C)C1=C(O)C(=O)[C@@]2(C)[C@@H]3CC[C@H]2[C@H]1C(=O)N(C)C3`, the IC50 in assay [1], in assay [2], in assay [3], in [4] and in assay [5] was over 40 µM in each case. Moreover, the outcome in [6] was inactive.

Consider `COc1cc(CCc2ccc(O)cc2)cc(O)c1-c1c(OC)cc([C@@H]2OO[C@H]2CO)cc1OC`, for which the IC50 is 20.8 µM in assay [1]; 23.5 µM in assay [2]; over 40 µM in assay [3]; 34.4 µM in assay [4]; 21.4 µM in [9]; 19.4 µM in [5]. In addition, in assay [7], the inhibition entry is “Active”. In addition, in assay [10], the outcome was inactive. In assay [8], the Activity came out at 37.6%.

With `COc1ccc(CCc2cc(O)c(-c3c(OC)cc([C@@H]4OO[C@H]4CO)cc3OC)c(OC)c2)cc1`, the IC50 in assay [1] is 4.4 µM; in assay [2] it was 2.3 µM; in [3], 5.3 µM; in assay [4], 5.1 µM; in assay [5] it was 4.7 µM. Besides, the inhibition entry in assay [7] was “Active”. Besides, the Activity in [8] is 18.1%. Moreover, the outcome in assay [6] was inactive.

Consider `CC(C)C[C@@H](C=O)NC(=O)[C@H](CC(C)C)NC(=O)[C@H](CC(C)C)NC(=O)OCc1ccccc1` [MG-132] (Cbz-Leu-Leu-Leu-aldehyde), for which the IC50 in assay [9] was 0.2 µM.

With `COc1ccc(CCc2cc(OC)c(O[C@H](CO)[C@@H](O)c3ccc(O)c(OC)c3)c(OC)c2)cc1`, the IC50 in [1], in assay [2], in assay [3], in [4] and in assay [5] was over 40 µM each time. The inhibition result in [7] is “Active”. In addition, the Activity in assay [8] stood at 27.6%. In assay [6], the outcome was inactive.

Regarding `CC(C)[C@@H]1[C@@H]([C@@H]2CC[C@@H]3CN(C)C(=O)[C@@]32C)C(=O)O[C@H]1O`, the IC50 in [1], in [2], in assay [3], in assay [4] and in assay [5] was over 40 µM throughout. Besides, the result in assay [6] was inactive.

Consider `CC(=O)O[C@H]1C(=O)[C@@]2(C)[C@H]([C@H](OC(=O)c3ccccc3)[C@]3(O)C[C@H](OC(=O)[C@H](O)[C@@H](NC(=O)c4ccccc4)c4ccccc4)C(C)=C1C3(C)C)[C@]1(OC(C)=O)CO[C@@H]1C[C@@H]2O` [PACLITAXEL], for which the IC50 in assay [1], in assay [2], in assay [3], in assay [4] and in [5] was under 0.008 µM throughout.

With `COC(=O)/C(=C(/C(=O)O)C(C)C)[C@@H]1CC[C@@H]2CN(C)C(=O)[C@@]21C`, the IC50 in [1], in assay [2], in assay [3], in assay [4] and in assay [5] was over 40 µM each time. For the same molecule, the outcome in assay [6] was inactive.

On to `CC(C)[C@H]1[C@@H]2C(=O)O[C@H]1[C@@]1(O)N(C)C[C@H]3CC[C@@H]2[C@]31C`, for which the IC50 in [1], in assay [2], in [3], in [4] and in assay [5] was over 40 µM throughout. The outcome in assay [6] was inactive.

On to `Cc1c(C)c2c(c(C)c1O)CCC(C)(C(=O)O)O2` (stereo unspecified), for which, in [11], the Activity was 95.5%.

For `CC(C)C1=C(O)C(=O)[C@@]2(C)[C@@H]3CC[C@H]2[C@H]1C(=O)NC3`, the IC50 in assay [1], in assay [2], in [3], in [4] and in [5] was over 40 µM in each case. Moreover, the outcome in [6] was inactive.
